{"source": "patent US20220389422A1", "about": "“IONIZABLE CATIONIC LIPIDS FOR RNA DELIVERY” (Arcturus Therapeutics, Inc., priority 2021, published 2022)", "key": {"factor VII": {"test_system": "factor VII", "test": "Factor VII knock down evaluation (LNP with FVII siRNA)", "assay_type": "in vivo, Balb/C mice", "details": "intravenous, plasma FVII after 48 h, relative to saline-treated controls; for FVII KD % _ 0.01 mpk: 0.01 mg/kg; for FVII KD % _ 0.03 mpk: 0.03 mg/kg", "description": "Lipid formulations comprising a FVII siRNA further described below were evaluated for their knockdown activity using the protocol of this example. In the FVII evaluation, seven to eight week-old, female Balb/C mice were purchased from Charles River Laboratories (Hollister, Calif.). The mice were held in a pathogen-free environment and all procedures involving the mice were performed in accordance with guidelines established by the Institutional Animal Care and Use Committee (IACUC). Lipid nanoparticles containing factor VII siRNA were administered intravenously at a dosing volume of 10 mL/kg and two dose levels (0.03 and 0.01 mg/kg). After 48 h, the mice were anesthetized with isoflurane and blood was collected retro-orbitally into Microtainer® tubes coated with 0.109 M sodium citrate buffer (BD Biosciences, San Diego, Calif.) and processed to plasma. Plasma specimens were tested for factor VII levels immediately or stored at −80° C. for later analysis. Measurement of FVII protein in plasma was determined using the colorimetric Biophen VII assay kit (Aniara Diagnostica, USA). Absorbance was measured at 405 nm and a calibration curve was generated using the serially diluted control plasma to determine levels of factor VII in plasma from treated animals, relative to the saline-treated control animals."}, "Measured pKa": {"test": "Measured pKa", "assay_type": "physicochemical", "details": "read-out: (pKa) measured pKa in parenthesis"}, "hEPO mRNA": {"test_system": "hEPO mRNA", "test": "hEPO mRNA expression evaluation (hEPO-LNPs)", "assay_type": "in vivo, Balb/c mice", "details": "intravenous (tail vein), serum hEPO after 6 hr, ELISA; for EPO expression (ng/mL)_0.03 mpk: 0.03 mg/kg; for EPO expression (ng/mL)_0.1 mpk: 0.1 mg/kg", "description": "Protocol for hEPO mRNA Expression Evaluation Lipid formulations comprising a hEPO mRNA below were evaluated for their ability to express hEPO in vivo according to the protocol of this example. All animal experiments were conducted using institutionally-approved protocols (IACUC). In this protocol, female Balb/c mice at least 6-8 weeks of age were purchased from Charles River Laboratory. The mice were intravenously injected with hEPO-LNPs via the tail vein with one of two dose levels of hEPO (0.1 and 0.03 mg/kg). After 6 hr, blood was collected with serum separation tubes, and the serum was isolated by centrifugation. Serum hEPO levels were then measured using an ELISA assay (Human Erythropoietin Quantikine IVD ELISA Kit, R&D Systems, Minneapolis, Md.)."}, "[1]": {"test": "In vivo biodegradability assay (lipid in mouse liver)", "design": "species or system mice", "details": "for concentration at 48 h: 0.03 mg/Kg dose, read-out: In vivo degradability ng/g of tissue at 48 h_0.03 mpk; for In vivo degradability ng/tissue at 48 h_0.1 mpk: 48 h, 0.1 mg/Kg dose", "description": "In vivo biodegradability assay was performed to assess the biodegradability of lipids in the LNP. Briefly, mice were injected with either 0.1 or 0.03 mg/Kg dose and after 24 or 48 hours mice livers were collected. To measure the concentration of lipids in the mouse liver, liver samples were homogenized in appropriate buffer in 1-10 dilution and mixed with the same amount of stabilized plasma. The samples were then mixed with organic solvents spiked with internal standard to precipitate proteins. After centrifugation, supernatant was diluted further with organic solvent before sample analysis by LC-MS. In LC-MS analysis, positive electrospray ionization was used, and multiple reaction monitoring (MRM) parameters were set up to specifically target the lipid analyte and internal standard. Calibration standards were prepared in stabilized plasma and mixed with same amount of homogenization buffer before protein precipitation. Quality control samples with known amounts of lipid was prepared in blank liver homogenate to monitor the precision and accuracy of the assay."}, "Mouse plasma stability": {"test": "Mouse plasma stability", "assay_type": "in vitro ADME, CD-1 mouse", "details": "37° C., starting concentration 1 μM, 120 min, LC-MS", "description": "Lipid stock solution was prepared by dissolution of the lipid in isopropanol at the concentration of 5 mg/mL. A requisite volume of the lipid-isopropanol solution was then diluted to 100 μM concentration at a total volume of 1.0 mL with in 50:50 (v/v) ethanol/water. Ten microliters of this 100 μM solution was spiked into 1.0 mL of mouse plasma (BioIVT, Cat. No.: MSE00PLNHUNN, CD-1 mouse, anticoagulant: sodium heparin, not filtered) that was pre-warmed to 37° C. and was stirred at 50 rpm with a magnetic stir bar. The starting concentration of lipids in plasma was thus 1 μM. At time points 0, 15, 30, 45, 60 and 120 min, 0.1 mL of the plasma was withdrawn from the reaction mixture and the protein was precipitated by adding 0.9 mL of ice-cold 4:1 (v/v) acetonitrile/methanol with 1 μg/mL of a selected internal standard lipid added. After filtration through a 0.45 micron 96-well filtering plate, the filtrates were analyzed by LC-MS (Thermo Fisher's Vanquish UHPLC-LTQ XL linear ion trap Mass Spectrometer); Waters XBridge BEH Shield RP18 2.5 µm (2.1×100 mm) column with its matching guard column. Mobile phase A was 0.1% formic acid in water, and mobile phase B was 0.1% formic acid in 1:1 (v/v) acetonitrile/methanol. Flow rate was […]. Elution gradient was: Time 0-1 min: 10% B; 1-6 min: 10%-95% B; 6-8.5 min: 95% B; 8.5-9 min: 95%-10% B; 9-10 min: 10% B. Mass spectrometry was in positive scanning mode from 600-1100 m/z. The peak of the molecular ion of the lipids was integrated in the extracted ion chromatography\n(XIC) using Xcalibur software (Thermo Fisher). The relative peak area compared to T=0, after normalization by the peak area of the internal standard, was used as the percentage of the lipid remaining at each time point. T1/2 values were calculated using the first-order decay model."}}, "data": [{"compound": "CCCCCCCC(CCCCCCC)OC(=O)CCCC(CCCC(=O)OC(CCCCCCC)CCCCCCC)OC(=O)CCCN(C)C", "note": "[ATX-193, 1,9-bis(pentadecan-8-yl)5-[[4-(dimethylamino)butanoyl]oxy] nonanedioate]", "values": [{"measurement": "FVII KD % _ 0.01 mpk", "setting": "factor VII", "result": 95.6, "unit": "%"}, {"measurement": "FVII KD % _ 0.03 mpk", "setting": "factor VII", "result": 100, "unit": "%"}, {"measurement": "pKa", "setting": "Measured pKa", "result": 6.35}, {"measurement": "EPO expression (ng/mL)_0.03 mpk", "setting": "hEPO mRNA", "result": 264, "unit": "ng/mL"}, {"measurement": "EPO expression (ng/mL)_0.1 mpk", "setting": "hEPO mRNA", "result": 498, "unit": "ng/mL"}]}, {"compound": "CCCCCCCC(CCCCCCC)OC(=O)CCCC(CCCC(=O)OC(CCCCCCC)CCCCCCC)COC(=O)CCCN(C)C", "note": "[ATX-200, 1,9-bis(pentadecan-8-yl) 5-([[4-(dimethylamino)butanoyl]oxy]methyl) nonanedioate]", "values": [{"measurement": "FVII KD % _ 0.01 mpk", "setting": "factor VII", "result": 87.1, "unit": "%"}, {"measurement": "FVII KD % _ 0.03 mpk", "setting": "factor VII", "result": 97.5, "unit": "%"}, {"measurement": "pKa", "setting": "Measured pKa", "result": 6.78}, {"measurement": "EPO expression (ng/mL)_0.03 mpk", "setting": "hEPO mRNA", "result": 494, "unit": "ng/mL"}, {"measurement": "EPO expression (ng/mL)_0.1 mpk", "setting": "hEPO mRNA", "result": 828, "unit": "ng/mL"}]}, {"compound": "CCCCCCCC(CCCCCCC)OC(=O)CCC(CCC(=O)OC(CCCCCCC)CCCCCCC)COC(=O)CCCN(C)C", "note": "[ATX-201]", "values": [{"measurement": "FVII KD % _ 0.01 mpk", "setting": "factor VII", "result": 87.4, "unit": "%"}, {"measurement": "FVII KD % _ 0.03 mpk", "setting": "factor VII", "result": 97.5, "unit": "%"}, {"measurement": "pKa", "setting": "Measured pKa", "result": 6.74}, {"measurement": "EPO expression (ng/mL)_0.03 mpk", "setting": "hEPO mRNA", "result": 523, "unit": "ng/mL"}, {"measurement": "EPO expression (ng/mL)_0.1 mpk", "setting": "hEPO mRNA", "result": 680, "unit": "ng/mL"}]}, {"compound": "CCCCCCCC(CCCCCCC)OC(=O)CCCC(CCCC(=O)OC(CCCCCCC)CCCCCCC)SC(=O)CCCN(C)C", "note": "[ATX-202]", "values": [{"measurement": "FVII KD % _ 0.01 mpk", "setting": "factor VII", "result": 61.42, "unit": "%"}, {"measurement": "FVII KD % _ 0.03 mpk", "setting": "factor VII", "result": 83.22, "unit": "%"}, {"measurement": "pKa", "setting": "Measured pKa", "result": 6.17}, {"measurement": "EPO expression (ng/mL)_0.03 mpk", "setting": "hEPO mRNA", "result": 447, "unit": "ng/mL"}, {"measurement": "EPO expression (ng/mL)_0.1 mpk", "setting": "hEPO mRNA", "result": 531, "unit": "ng/mL"}]}, {"compound": "CCCCCCC(CCCCCC)OC(=O)CCCCCC(CCCCCC(=O)OC(CCCCCC)CCCCCC)OC(=O)CCCN(C)C", "note": "[ATX-209]", "values": [{"measurement": "concentration at 48 h", "setting": "[1]", "result": 0, "unit": "ng/g"}, {"measurement": "In vivo degradability ng/tissue at 48 h_0.1 mpk", "setting": "[1]", "result": 647, "unit": "ng/tissue"}, {"measurement": "FVII KD % _ 0.01 mpk", "setting": "factor VII", "result": 65.7, "unit": "%"}, {"measurement": "FVII KD % _ 0.03 mpk", "setting": "factor VII", "result": 90.6, "unit": "%"}, {"measurement": "Percent of lipid remaining in mouse plasma after 2 h", "setting": "Mouse plasma stability", "result": 80, "unit": "%"}, {"measurement": "EPO expression (ng/mL)_0.03 mpk", "setting": "hEPO mRNA", "result": 65, "unit": "ng/mL"}, {"measurement": "EPO expression (ng/mL)_0.1 mpk", "setting": "hEPO mRNA", "result": 290, "unit": "ng/mL"}]}, {"compound": "CCCCCCCC(CCCCCCC)OC(=O)CCCC(CCCC(=O)OC(CCCCC)CCCCC)OC(=O)CCCN(C)C", "note": "(centres unmarked) [ATX-210]", "values": [{"measurement": "FVII KD % _ 0.01 mpk", "setting": "factor VII", "result": 87, "unit": "%"}, {"measurement": "FVII KD % _ 0.03 mpk", "setting": "factor VII", "result": 97.65, "unit": "%"}, {"measurement": "pKa", "setting": "Measured pKa", "result": 6.53}, {"measurement": "EPO expression (ng/mL)_0.03 mpk", "setting": "hEPO mRNA", "result": 329, "unit": "ng/mL"}, {"measurement": "EPO expression (ng/mL)_0.1 mpk", "setting": "hEPO mRNA", "result": 662, "unit": "ng/mL"}]}, {"compound": "CCCCCCC(CCCCCC)COC(=O)CCCCCC(CCCCCC(=O)OCC(CCCCCC)CCCCCC)OC(=O)CCCN(C)C", "note": "[ATX-231]", "values": [{"measurement": "concentration at 48 h", "setting": "[1]", "result": 0, "unit": "ng/g"}, {"measurement": "In vivo degradability ng/tissue at 48 h_0.1 mpk", "setting": "[1]", "result": 0, "unit": "ng/tissue"}, {"measurement": "FVII KD % _ 0.01 mpk", "setting": "factor VII", "result": 72, "unit": "%"}, {"measurement": "FVII KD % _ 0.03 mpk", "setting": "factor VII", "result": 86, "unit": "%"}, {"measurement": "Percent of lipid remaining in mouse plasma after 2 h", "setting": "Mouse plasma stability", "result": 89, "unit": "%"}, {"measurement": "EPO expression (ng/mL)_0.03 mpk", "setting": "hEPO mRNA", "result": 1706, "unit": "ng/mL"}, {"measurement": "EPO expression (ng/mL)_0.1 mpk", "setting": "hEPO mRNA", "result": 5446, "unit": "ng/mL"}]}, {"compound": "CCCCCCCC(CCCCCCC)COC(=O)CCCC(CCCC(=O)OC(CCCCCCC)CCCCCCC)OC(=O)CCCN(C)C", "note": "(centres unmarked) [ATX-232]", "values": [{"measurement": "FVII KD % _ 0.01 mpk", "setting": "factor VII", "result": 74, "unit": "%"}, {"measurement": "FVII KD % _ 0.03 mpk", "setting": "factor VII", "result": 90, "unit": "%"}, {"measurement": "EPO expression (ng/mL)_0.03 mpk", "setting": "hEPO mRNA", "result": 2115, "unit": "ng/mL"}, {"measurement": "EPO expression (ng/mL)_0.1 mpk", "setting": "hEPO mRNA", "result": 510, "unit": "ng/mL"}]}, {"compound": "CCCCCC(CC)C(=O)OCCCCCCCCCC(CCCCCCCCCOC(=O)C(CC)CCCCC)OC(=O)CCCN(C)C", "note": "(centres unmarked) [Compound-10111, reference compound]", "values": [{"measurement": "concentration at 48 h", "setting": "[1]", "result": 566, "unit": "ng/g"}, {"measurement": "In vivo degradability ng/tissue at 48 h_0.1 mpk", "setting": "[1]", "result": 2613, "unit": "ng/tissue"}, {"measurement": "FVII KD % _ 0.01 mpk", "setting": "factor VII", "result": 89, "unit": "%"}, {"measurement": "FVII KD % _ 0.03 mpk", "setting": "factor VII", "result": 95, "unit": "%"}, {"measurement": "Percent of lipid remaining in mouse plasma after 2 h", "setting": "Mouse plasma stability", "result": 91, "unit": "%"}, {"measurement": "EPO expression (ng/mL)_0.03 mpk", "setting": "hEPO mRNA", "result": 105, "unit": "ng/mL"}, {"measurement": "EPO expression (ng/mL)_0.1 mpk", "setting": "hEPO mRNA", "result": 213, "unit": "ng/mL"}]}]}
